Experiments:
Rattus norvegicus [1] = assay: Neurotoxicity in Sprague-Dawley rat assessed as induction of hind limb flexion at 1000 to 1500 ug/kg, ip after 15 to 30 mins by LORR test; format: toxicity, organism-based, Hindlimb; conditions: in vivo
Rattus norvegicus [2] = assay: Neurotoxicity in Sprague-Dawley rat assessed as induction of resistance to lateral push at 1000 to 1500 ug/kg, ip after 15 to 30 mins by LORR test; format: toxicity, organism-based; conditions: in vivo
Rattus norvegicus [3] = assay: Neurotoxicity in Sprague-Dawley rat assessed as exploratory behaviour changes at 10 to 2000 ug/kg, ip after 30 mins by LORR test; format: toxicity, organism-based; conditions: in vivo, 0.5 h
Rattus norvegicus [4] = assay: Neurotoxicity in Sprague-Dawley rat assessed as induction of forpaw grasping reflex at 1000 to 1500 ug/kg, ip after 15 to 30 mins by LORR test; format: toxicity, organism-based; conditions: in vivo

Cl.Clc1cccc2ccn(CC3=NCCN3)c12
Activity (Rattus norvegicus [1]): Toxic
Activity (Rattus norvegicus [2]): Non-toxic
Activity (Rattus norvegicus [3]): Non-toxic
Activity (Rattus norvegicus [4]): Non-toxic

— ChEMBL document CHEMBL3797164, “Transfer of SAR information from hypotensive indazole to indole derivatives acting at α-adrenergic receptors: In vitro and in vivo studies” (Eur J Med Chem, 2016)
